Here are results for seven compounds from patent publication US20210379016A1, “THERAPEUTICS AND METHODS OF TREATMENT OF ANGIOTENSIN-CONVERTING ENZYME 2 ASSOCIATED CONDITIONS” (Board of Supervisors of Louisiana State University and …, priority 2020, published 2021).

Structures are written as SMILES. “Also recorded” adds a separate entry of the source.

The target in one assay is Sigmar1 (Homo sapiens, UniProt Q99720). The following applies: cited from earlier work; for Ki: read-out: binding affinity Ki for Sigmar1.
The test system of assay [1] is ACE2 expression in HEK-293 cells. The assay can be described thus: ACE2 expression in HEK-293 cells treated with Sigmar1 ligands for 24 hours. It is filed as cell-based. The following applies: 24 hours treatment.

Sigmar1, sequence (Q99720 whole entry, species assumed): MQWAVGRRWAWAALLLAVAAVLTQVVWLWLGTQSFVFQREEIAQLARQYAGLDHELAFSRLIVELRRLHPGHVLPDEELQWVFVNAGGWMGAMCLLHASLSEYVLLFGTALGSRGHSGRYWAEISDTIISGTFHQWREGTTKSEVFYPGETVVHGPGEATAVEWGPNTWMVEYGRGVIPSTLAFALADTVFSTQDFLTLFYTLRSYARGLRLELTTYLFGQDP

Regarding `COc1ccc(N2C[C@H](CN3CCC(O)(c4ccc5c(c4)OCO5)CC3)OC2=O)cc1` [Panamesine], the IC50 (commonly the concentration at which inhibition is half-maximal) on Sigmar1 is 6 nM.
As for `c1ccc(CCN2CCCCC2)cc1` [AC927, 1-(2-phenylethyl) piperidine], on Sigmar1, the Ki – broadly, a dissociation constant, usually derived from enzyme kinetics or from competition with a known ligand – is 30 ± 2 nM.
Take `CCN(CCc1ccc(Cl)c(Cl)c1)CCN1CCCC1` [BD1067, N-[2-(3,4-dichlorophenyl)ethyl]-N-ethyl-1-pyrrolidineethanamine]: at Sigmar1, the Ki is 2 ± 0.5 nM.
`S=c1sc2ccccc2n1CCCCN1CCN(C2CCCCC2)CC1` [CM156, 3-(4-(4-cyclohexylpiperazin-1-yl)butyl) benzo [d]thiazole-2(3H)-thione]: at Sigmar1, the “affinity for Sigmar1 (in words)” value is listed as “nanomolar affinity”.
For `CN[C@H]1CC[C@@H](c2ccc(Cl)c(Cl)c2)c2ccccc21` [Sertraline], in assay [1], the ACE2 expression result is given as “significantly decreased the ACE2 expression; also recorded: decreases the ACE2 expression”.
Consider `CN1CCN(CCc2ccc(Cl)c(Cl)c2)CC1` [BD1063, 1-[2-(3,4-dichlorophenyl)ethyl]-4-methylpiperazine], for which, at Sigmar1, the Ki is 9 ± 1 nM.
Regarding `CCCN(CCC)CCc1ccc(OC)c(OCCc2ccccc2)c1` [NE-100, 4-methoxy-3-(2-phenylethoxy)-N,N-dipropylbenzeneethanamine], the ACE2 expression result in assay [1] is “significantly decreased the ACE2 expression; also recorded: decreases the ACE2 expression”.
